# Reference: US20230024302A1, “2,3,5-TRISUBSTITUTED PYRAZOLO[1,5-A]PYRIMIDINE COMPOUNDS” (Arcus Biosciences, Inc., priority 2019, published 2023)
# Like-named read-outs stand apart in the source and are kept apart here.
# Key:
# PI3Kγ (p120γ) = target: T1, PI3Kγ (p120γ) (Homo sapiens, UniProt P48736); assay: Inhibition of PI3K kinase activity (ADP Glo), PI3Kγ; conditions: read-out: biochemical potency (PI3Kγ IC50)
# T1 construct: purchased Promega V1761
# In short: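 Recombinant p120γ (8 nM, 2× stock) was preincubated with compound for 1 h at rt in HEPES pH 7.4, NaCl, MgCl2 and 0.05% BSA. Reaction was started with PIP2 (0.1 mg/ml, 2×) and ATP (50 μM, 2×) and ran 60 min at rt. ADP formed was read by ADP-Glo luminescence, and IC50 came from a 4-parameter fit.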
# PI3Kγ = target: T2, PI3Kγ (Homo sapiens, UniProt P48736); assay: PI3Kγ cellular assay in THP-1 cells (AKT pS473 AlphaLISA); format: cell-based
# T2 construct: host or cells: THP-1
# T2 sequence (P48736 whole entry): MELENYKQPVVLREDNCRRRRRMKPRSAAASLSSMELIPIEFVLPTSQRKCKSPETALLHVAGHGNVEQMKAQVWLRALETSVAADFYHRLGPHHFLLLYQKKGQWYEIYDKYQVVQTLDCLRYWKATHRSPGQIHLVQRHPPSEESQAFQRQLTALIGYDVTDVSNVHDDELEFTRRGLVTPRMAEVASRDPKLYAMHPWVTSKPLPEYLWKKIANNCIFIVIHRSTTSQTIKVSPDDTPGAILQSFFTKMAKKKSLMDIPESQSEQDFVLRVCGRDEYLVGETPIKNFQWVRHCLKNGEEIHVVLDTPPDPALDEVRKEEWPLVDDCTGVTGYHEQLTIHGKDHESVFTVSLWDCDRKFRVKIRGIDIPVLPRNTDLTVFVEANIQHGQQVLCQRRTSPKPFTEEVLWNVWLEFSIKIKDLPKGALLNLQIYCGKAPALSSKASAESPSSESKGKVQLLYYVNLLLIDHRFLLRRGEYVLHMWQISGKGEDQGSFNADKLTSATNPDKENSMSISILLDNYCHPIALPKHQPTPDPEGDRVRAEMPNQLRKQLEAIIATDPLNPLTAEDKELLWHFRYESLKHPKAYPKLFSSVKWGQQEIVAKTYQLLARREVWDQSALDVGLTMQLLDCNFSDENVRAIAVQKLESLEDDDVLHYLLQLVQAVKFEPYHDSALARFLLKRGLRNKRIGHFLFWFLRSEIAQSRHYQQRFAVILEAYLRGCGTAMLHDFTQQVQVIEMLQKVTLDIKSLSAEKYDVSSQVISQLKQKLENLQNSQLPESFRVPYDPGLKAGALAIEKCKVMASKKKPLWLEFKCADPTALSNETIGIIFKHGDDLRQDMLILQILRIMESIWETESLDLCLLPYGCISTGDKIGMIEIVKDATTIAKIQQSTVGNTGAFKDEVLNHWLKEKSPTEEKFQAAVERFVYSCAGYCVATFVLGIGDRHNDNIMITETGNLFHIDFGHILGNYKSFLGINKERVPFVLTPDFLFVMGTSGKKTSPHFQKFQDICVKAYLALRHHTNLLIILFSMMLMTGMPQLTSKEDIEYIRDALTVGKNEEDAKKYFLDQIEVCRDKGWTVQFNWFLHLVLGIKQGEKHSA
# In short: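 Serum-starved THP-1 cells (1.8×10^5/well, serum-free DMEM) treated with compounds from 4 nM to 30 μM in 2% DMSO, then stimulated and lysed.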
# [1] = Table 2, rhMCP-1 stimulated AKT pS473, read-out: cellular potency (PI3Kγ IC50)
# [2] = Table 3, rhMCP-1 stimulated AKT pS473, read-out: cellular potency (PI3Kγ IC50)
# T1 sequence (P48736 whole entry): as above
"IC50 (PI3Kγ (p120γ); Table 2, p120γ) [nM]",IC50 (PI3Kγ; [1]) [nM],"IC50 (PI3Kγ (p120γ); Table 3, p120γ) [nM]",IC50 (PI3Kγ; [2]) [nM],SMILES
100 to 1000,> 1000,–,–,Cc1cc(-c2ccn3nc(N)c(C(=O)N[C@@H](C)C4CCNCC4)c3n2)cc2c1C(=O)N([C@@H](C)C1CC1)C2 [Example 290]
> 1000,> 1000,–,–,Cc1cc(-c2ccn3nc(N)c(C(=O)N4CCN(C)CC4)c3n2)cc2c1C(=O)N(C(C)C1CC1)C2 (stereo not drawn) [Example 291]
< 100,100 to 1000,–,–,Cc1cc(-c2ccn3nc(N)c(C(=O)Nc4cn(C)nc4C)c3n2)cc2c1C(=O)N([C@@H](C)C1CC1)C2 [Example 292]
< 100,100 to 1000,–,–,Cc1cc(NC(=O)c2c(N)nn3ccc(-c4cc(C)c5c(c4)CN([C@@H](C)C4CC4)C5=O)nc23)ccc1C(=O)O [Example 293]
< 100,100 to 1000,–,–,Cc1cc(-c2ccn3nc(N)c(C(=O)Nc4cnn(C5CC5)c4)c3n2)cc2c1C(=O)N([C@@H](C)C1CC1)C2 [Example 294]
< 100,100 to 1000,–,–,CCn1cc(NC(=O)c2c(N)nn3ccc(-c4cc(C)c5c(c4)CN([C@@H](C)C4CC4)C5=O)nc23)cn1 [Example 295]
< 100,100 to 1000,–,–,Cc1cc(-c2ccn3nc(N)c(C(=O)Nc4cnn(C)c4F)c3n2)cc2c1C(=O)N([C@@H](C)C1CC1)C2 [Example 296]
< 100,100 to 1000,–,–,Cc1cc(NC(=O)c2c(N)nn3ccc(-c4cc(C)c5c(c4)CN([C@@H](C)C4CC4)C5=O)nc23)ccn1 [Example 297]
< 100,> 1000,–,–,Cc1cc(-c2ccn3nc(N)c(C(=O)Nc4ccccc4)c3n2)cc2c1C(=O)N([C@@H](C)C1CC1)C2 [Example 298]
< 100,> 1000,–,–,Cc1cc(-c2ccn3nc(N)c(C(=O)Nc4ccc(Cl)cc4)c3n2)cc2c1C(=O)N([C@@H](C)C1CC1)C2 [Example 299]
< 100,> 1000,–,–,Cc1csc(NC(=O)c2c(N)nn3ccc(-c4cc(C)c5c(c4)CN([C@@H](C)C4CC4)C5=O)nc23)n1 [Example 300]
< 100,100 to 1000,–,–,Cc1cc(-c2ccn3nc(N)c(C(=O)NC4CC4)c3n2)cc2c1C(=O)N([C@@H](C1CC1)C(F)(F)F)C2 [Example 301]
< 100,100 to 1000,–,–,CC[C@H](C)N1Cc2cc(-c3ccn4nc(N)c(C(=O)NC5CC5)c4n3)cc(C)c2C1=O [Example 302]
< 100,100 to 1000,–,–,Cc1cc(-c2ccn3nc(N)c(C(=O)NC4CC4)c3n2)cc2c1C(=O)N(C1CC1)C2 [Example 303]
< 100,100 to 1000,–,–,Cc1cc(-c2ccn3nc(N)c(C(=O)NC4CC4)c3n2)cc2c1C(=O)N(C(C)C)C2 [Example 304]
< 100,100 to 1000,–,–,CCN1Cc2cc(-c3ccn4nc(N)c(C(=O)NC5CC5)c4n3)cc(C)c2C1=O [Example 305]
< 100,100 to 1000,–,–,CC[C@@H](C)N1Cc2cc(-c3ccn4nc(N)c(C(=O)NC5CC5)c4n3)cc(C)c2C1=O [Example 306]
< 100,100 to 1000,–,–,Cc1cc(-c2ccn3nc(N)c(C(=O)NC4CC4)c3n2)cc2c1C(=O)N(CC1CC1)C2 [Example 307]
< 100,100 to 1000,–,–,CC[C@H](CO)N1Cc2cc(-c3ccn4nc(N)c(C(=O)NC5CC5)c4n3)cc(C)c2C1=O [Example 308]
< 100,100 to 1000,–,–,CC[C@@H](CO)N1Cc2cc(-c3ccn4nc(N)c(C(=O)NC5CC5)c4n3)cc(C)c2C1=O [Example 309]
< 100,100 to 1000,–,–,Cc1cc(-c2ccn3nc(N)c(C(=O)NC4CC4)c3n2)cc2c1C(=O)N([C@H](CO)C1CC1)C2 [Example 310]
< 100,100 to 1000,–,–,Cc1cc(-c2ccn3nc(N)c(C(=O)NC4CC4)c3n2)cc2c1C(=O)N([C@@H](CO)C1CC1)C2 [Example 311]
< 100,100 to 1000,–,–,Cc1cc(-c2ccn3nc(N)c(C(=O)N[C@@H](CO)C4CC4)c3n2)cc2c1C(=O)N(C(C)(C)CO)C2 [Example 312]
< 100,100 to 1000,–,–,Cc1cc(-c2ccn3nc(N)c(C(=O)N[C@@H](C)c4ccccc4F)c3n2)cc2c1C(=O)N(C(C)(C)CO)C2 [Example 313]
< 100,100 to 1000,–,–,Cc1cc(-c2ccn3nc(N)c(C(=O)NC4(C)COC4)c3n2)cc2c1C(=O)N(C(C)(C)CO)C2 [Example 314]
< 100,100 to 1000,–,–,Cc1cc(-c2ccn3nc(N)c(C(=O)NC4COC4)c3n2)cc2c1C(=O)N(C(C)(C)CO)C2 [Example 315]
< 100,100 to 1000,–,–,Cc1cc(-c2ccn3nc(N)c(C(=O)NC4CC4)c3n2)cc2c1C(=O)N(C(C)(C)CO)C2 [Example 316]

"IC50 (PI3Kγ (p120γ); Table 2, p120γ) [nM]",IC50 (PI3Kγ; [1]) [nM],"IC50 (PI3Kγ (p120γ); Table 3, p120γ) [nM]",IC50 (PI3Kγ; [2]) [nM],SMILES
< 100,> 1000,–,–,Cc1cc(-c2ccn3nc(N)c(C(=O)N[C@H](C)c4ccccc4F)c3n2)cc2c1C(=O)N(C(C)(C)CO)C2 [Example 317]
< 100,100 to 1000,–,–,Cc1cc(-c2ccn3nc(N)c(C(=O)NC4(C)COC4)c3n2)cc2c1C(=O)N(CC(C)(C)O)C2 [Example 318]
< 100,100 to 1000,–,–,Cc1cc(-c2ccn3nc(N)c(C(=O)NC4CC4)c3n2)cc2c1C(=O)N(CC(C)(C)O)C2 [Example 319]
< 100,100 to 1000,–,–,Cc1cc(-c2ccn3nc(N)c(C(=O)NC4COC4)c3n2)cc2c1C(=O)N(CC(C)(C)O)C2 [Example 320]
< 100,100 to 1000,–,–,Cc1cc(-c2ccn3nc(N)c(C(=O)N[C@@H](CO)C4CC4)c3n2)cc2c1C(=O)N(CC(C)(C)O)C2 [Example 321]
< 100,100 to 1000,–,–,Cc1cc(-c2ccn3nc(N)c(C(=O)NC4CC4)c3n2)cc2c1C(=O)N([C@H]1CC[C@@H](O)C1)C2 [Example 322]
< 100,100 to 1000,–,–,Cc1cc(-c2ccn3nc(N)c(C(=O)NC4CC4)c3n2)cc2c1C(=O)N([C@H]1CC[C@H](O)C1)C2 [Example 323]
< 100,100 to 1000,–,–,Cc1cc(-c2ccn3nc(N)c(C(=O)NC4CC4)c3n2)cc2c1C(=O)N([C@@H]1CCC[C@H](O)C1)C2 [Example 324]
< 100,> 1000,–,–,Cc1cc(-c2ccn3nc(N)c(C(=O)NC(C)CO)c3n2)cc2c1C(=O)N([C@@H]1CCC[C@@H](O)C1)C2 (stereo partly drawn) [Example 325]
< 100,> 1000,–,–,Cc1cc(-c2ccn3nc(N)c(C(=O)NC(C)CO)c3n2)cc2c1C(=O)N([C@@H]1CCC[C@H](O)C1)C2 (stereo partly drawn) [Example 326]
< 100,100 to 1000,–,–,Cc1cc(-c2ccn3nc(N)c(C(=O)NC4CC4)c3n2)cc2c1C(=O)N([C@H]1CCC[C@H](O)C1)C2 [Example 327]
< 100,100 to 1000,–,–,Cc1cc(-c2ccn3nc(N)c(C(=O)NC4CC4)c3n2)cc2c1C(=O)N([C@@H]1CCC[C@@H](O)C1)C2 [Example 328]
< 100,> 1000,–,–,Cc1cc(-c2ccn3nc(N)c(C(=O)NC(C)CO)c3n2)cc2c1C(=O)N([C@H]1CCC[C@H](O)C1)C2 (stereo partly drawn) [Example 329]
< 100,> 1000,–,–,Cc1cc(-c2ccn3nc(N)c(C(=O)NC(C)CO)c3n2)cc2c1C(=O)N([C@H](C)c1ccncc1)C2 (stereo partly drawn) [Example 330]
< 100,> 1000,–,–,Cc1cc(-c2ccn3nc(N)c(C(=O)NC4CC4)c3n2)cc2c1C(=O)N([C@H](C)c1ccncc1)C2 [Example 331]
< 100,> 1000,–,–,Cc1cc(-c2ccn3nc(N)c(C(=O)NC(C)CO)c3n2)cc2c1C(=O)N([C@H](C)c1cccnc1)C2 (stereo partly drawn) [Example 332]
< 100,> 1000,–,–,Cc1cc(-c2ccn3nc(N)c(C(=O)NC4CC4)c3n2)cc2c1C(=O)N([C@H](C)c1cccnc1)C2 [Example 333]
–,–,< 100,100 to 1000,CC(=O)N1CC(NC(=O)c2c(N)nn3ccc(-c4cc5c(c(C(F)(F)F)c4)C(=O)N([C@@H](C)C4CC4)C5)nc23)C1 [Example 334]
–,–,< 100,100 to 1000,C[C@@H](C1CC1)N1Cc2cc(-c3ccn4nc(N)c(C(=O)NC(C)(C)CO)c4n3)cc(C(F)(F)F)c2C1=O [Example 335]
–,–,< 100,100 to 1000,C[C@@H](C1CC1)N1Cc2cc(-c3ccn4nc(N)c(C(=O)NCCCS(C)(=O)=O)c4n3)cc(C(F)(F)F)c2C1=O [Example 336]
–,–,< 100,100 to 1000,C[C@@H](C1CC1)N1Cc2cc(-c3ccn4nc(N)c(C(=O)NCCS(C)(=O)=O)c4n3)cc(C(F)(F)F)c2C1=O [Example 337]
–,–,< 100,100 to 1000,C[C@@H](C1CC1)N1Cc2cc(-c3ccn4nc(N)c(C(=O)NC5(CO)COC5)c4n3)cc(C(F)(F)F)c2C1=O [Example 338]
–,–,< 100,100 to 1000,COC[C@@H](C)NC(=O)c1c(N)nn2ccc(-c3cc4c(c(C(F)(F)F)c3)C(=O)N([C@@H](C)C3CC3)C4)nc12 [Example 339]
–,–,< 100,100 to 1000,Nc1nn2ccc(-c3cc4c(c(C(F)(F)F)c3)C(=O)N([C@@H](CO)C3CC3)C4)nc2c1C(=O)NC1CC1 [Example 340]
–,–,< 100,100 to 1000,C[C@@H](O)CCNC(=O)c1c(N)nn2ccc(-c3cc4c(c(C(F)(F)F)c3)C(=O)N([C@@H](C)C3CC3)C4)nc12 [Example 341]
–,–,< 100,100 to 1000,C[C@@H](C1CC1)N1Cc2cc(-c3ccn4nc(N)c(C(=O)NC5(CO)CC5)c4n3)cc(C(F)(F)F)c2C1=O [Example 342]
–,–,< 100,100 to 1000,CC[C@H](C)NC(=O)c1c(N)nn2ccc(-c3cc4c(c(C(F)(F)F)c3)C(=O)N([C@@H](C)C3CC3)C4)nc12 [Example 343]
